Measured values reported in PubChem BioAssay AID1996.
Converted amounts (≈) assume the structure as drawn.

Conditions: buffer; pH 7.4; 200.0 µM

| Compound | solubility kinetic [µg/mL] |
| --- | --- |
| Cn1cncc1C(=O)c1ccccc1 | > 27.9 |
| CCN(Cc1ccncc1)C(=O)CCc1ccccc1 | 33.4 (≈ 124 µM) |
| CC1CN(S(=O)(=O)c2ccc(C(=O)NC3CCCCC3)cc2)CC(C)O1 (centres undefined) | 45.8 (≈ 120 µM) |
| CCCC(=O)N1CCN(c2nc3ccc(Cl)cc3s2)CC1 | 46.3 (≈ 143 µM) |
| Cc1cccc(NS(=O)(=O)c2ccc(C(=O)N3CCC3)cc2)c1C | 50.8 (≈ 147 µM) |
| O=C(Oc1ccc(C(=S)N2CCOCC2)cc1)c1cccc(Cl)c1 | < 0.8 |
| Cc1nc(N)ncc1-c1ccc2c(c1)OCO2 | 10.8 (≈ 47.1 µM) |
| CC(C)(C#CC(O)(c1ccccc1)c1ccccc1)N1CCCCC1 | 46.3 (≈ 139 µM) |
| N#C/C(=C(/O)COC(=O)c1ccc(O)cc1)c1nc2ccccc2[nH]1 | 9 (≈ 26.8 µM) |
| CC(=O)c1ccc(NC(=O)C(C)NCc2ccccc2Cl)cc1 (centres undefined) | 38.3 (≈ 116 µM) |
| O=C1CSC(=S)N1c1cccc(Cl)c1 | 0.7 (≈ 2.87 µM) |
| O=C(CSc1nnc(-c2ccncc2)o1)Nc1nncs1 | > 48.1 |
| CNc1ccccc1NC(=O)CCn1c(=S)oc2ccccc21 | 5.6 (≈ 17.1 µM) |
| CCN(c1cccc(C)c1)S(=O)(=O)c1ccc2c(c1)oc(=O)n2C | 2.7 (≈ 7.79 µM) |
| COc1ccc([N+](=O)[O-])cc1NC(=O)CCSCCc1ccccn1 | > 54.2 |
| CC(=O)Nc1ccc(OCc2cccc3ccccc23)cc1 | < 0.6 |
| Cc1cc(C(=O)OC(C)C(=O)NC2CCCCC2C)c(C)o1 (centres undefined) | 5.5 (≈ 17.9 µM) |
| O=S(=O)(Nc1cccc(F)c1)c1cccc2nsnc12 | > 46.4 |
| Cc1cccc(C)c1NC(=O)CCCCCC1NC(=O)NC1C (centres undefined) | > 47.6 |
| CN(C)S(=O)(=O)c1ccc(N2CCCC2)c(C(=O)Nc2nccs2)c1 | 51.6 (≈ 136 µM) |
| O=C(NN1CCOCC1)c1ccc(Br)cc1 | > 42.8 |
| CC(C)c1ccc(CN2C(=O)c3ccccc3S2(=O)=O)cc1 | 1.2 (≈ 3.8 µM) |
| CNC(=O)CSc1nnc(-c2ccc3c(c2)OCO3)n1C | > 46 |
| CCN(CC)CCN(C(=O)/C=C/c1cccs1)c1nc2ccc(C)cc2s1.Cl | 0.6 |

| Compound | solubility kinetic [µg/mL] |
| --- | --- |
| Cc1cc(C)cc(C(=O)OCC(=O)NC2CCCC2)c1 | 21.7 (≈ 78.8 µM) |
| CN(C)c1cc(-c2ccc([N+](=O)[O-])cc2)oc(=O)c1Cl | 0.9 (≈ 3.05 µM) |
| c1ccc(NC(c2ccccc2)c2ccncc2)cc1 (centres undefined) | 25.5 (≈ 97.9 µM) |
| CN(C)Cc1c(O)ccc2c(=O)c(-c3ccccc3Cl)coc12 | > 49.5 |
| CC(C)N(CCC#N)C(=O)Nc1ccc2c(c1)CCO2 | > 41 |
| NC(=O)c1c(NC(=O)COC(=O)c2ccc(O)c(Cl)c2)sc2c1CCCC2 | 8.5 (≈ 20.8 µM) |
| CC1CN(C(=O)COC(=O)c2ccc(C#N)cc2)CC(C)O1 (centres undefined) | > 45.3 |
| COc1ccc2c(c1)c1ncn(Cc3ccc(F)cc3)c(=O)c1n2C | 2.5 (≈ 7.41 µM) |
| O=C(Nc1ccccc1F)c1cnccn1 | > 32.6 |
| Cc1cnc(C(=O)OCC(=O)Nc2cc(Cl)ccc2C#N)cn1 | > 49.6 |
| CCCCn1nc(CC(=O)NCCN(CC)CC)c2ccccc2c1=O | > 53.8 |
| Cc1ccc(Nc2nc(-c3ccncc3)nc3ccccc23)cc1 | < 0.2 |
| Cc1c(Cl)cccc1NC(=O)C1CCN(c2cnccn2)CC1 | 2.1 (≈ 6.35 µM) |
| CN(Cc1cccc(Cl)c1Cl)C(=O)CCNC(=O)c1ccco1 | > 53.3 |
| CC1CCc2c(sc(/N=C/c3cccnc3)c2C(N)=O)C1 (centres undefined) | 26.8 (≈ 89.5 µM) |
| O=C(CSc1ncnc2sccc12)NC1CCS(=O)(=O)C1 (centres undefined) | > 51.5 |
| COc1cccc(C(=O)O/N=C(\N)c2ccc(C)cc2)c1 | 10.2 (≈ 35.9 µM) |
| CCCCCNS(=O)(=O)c1cc2c3c(c1)CCC(=O)N3CCC2 | 45.5 (≈ 135 µM) |
| O=C(NCc1ccco1)c1cccc(Br)c1 | 39 (≈ 139 µM) |
| CN1C/C(=C/c2cccs2)C(=O)/C(=C\c2cccs2)C1 | 24.6 (≈ 81.6 µM) |
| CCOc1ccc(C(=O)OC(C)CN2CCCCC2)cc1.Cl (centres undefined) | > 49.2 |
| Cn1c2ccc(F)cc2c2nc3ccccc3nc21 | 0.7 (≈ 2.79 µM) |
| O=C(CSc1ccc(C(F)(F)F)cn1)Nc1ccccc1 | 16.8 (≈ 53.8 µM) |
| Cc1ccc(NC(=O)CN2CCOCC2)cc1C | 35.1 (≈ 141 µM) |

| Compound | solubility kinetic [µg/mL] |
| --- | --- |
| Cc1ccc(NC(=O)c2ccc(COc3ccccc3)o2)nc1 | 16 (≈ 51.9 µM) |
| O=C(NCCCO)C(=O)NCc1ccncc1 | > 35.6 |
| Cc1ccc(C(=O)Nc2c(C)cc(C)c3cccnc23)cc1 | 0.5 (≈ 1.72 µM) |
| O=C1c2ccccc2C(=O)N1CC(O)COc1ccc(Cl)cc1 (centres undefined) | 6.1 (≈ 18.4 µM) |
| CCn1ccc(C(=O)Nc2ncc(C)s2)n1 | > 35.4 |
| C/C(=N\Nc1ccccc1C(=O)O)c1ccncc1 | > 38.3 |
| O=C(Nc1ccc([N+](=O)[O-])cc1)C1COc2ccccc2O1 (centres undefined) | 0.9 (≈ 3 µM) |
| O=C(CS(=O)(=O)c1c[nH]c2ccccc12)N1CCCCCC1 | > 48.1 |
| CC1SC2(NC1=O)C1CC3CC(C1)CC2C3 (centres undefined) | 3.4 (≈ 14.3 µM) |
| CC(C)N(Cc1ccccc1)C(=O)CN1C(=O)c2ccccc2C1=O | > 50.5 |
| Cc1ccc(-c2nc3ncccc3o2)cc1NC(=O)C(C)(C)C | 44.4 (≈ 144 µM) |
| COc1ccc(Nc2ncnc3sc(C)cc23)cc1.Cl | 14.8 |
| CC(=O)c1cccc(NC(=O)c2cnccn2)c1 | > 36.2 |
| S=C1NCN(Cc2ccco2)CN1c1cccc2ccccc12 | > 48.5 |
| CC(CCN1CCN(CCO)CC1)c1ccccc1 (centres undefined) | 23.1 (≈ 88 µM) |
| Cc1ccc2cc(C#N)c(N3CCN(C(=O)c4cccs4)CC3)nc2c1 | < 0.2 |
| O=C(c1cccc([N+](=O)[O-])c1)c1ccc2c(c1)C(=O)NC2=O | 6.3 (≈ 21.3 µM) |
| O=C(COC(=O)c1ccc(Cl)nc1)NCc1cccs1 | 25.2 (≈ 81.1 µM) |
| O=C(Nc1ccc(Cl)cc1Cl)c1cc2ccccc2o1 | < 0.7 |
| COc1ccc(Nc2cc(C)c3ccccc3n2)cc1 | 12.6 (≈ 47.7 µM) |
| CC(=O)NCc1ccc(C(=O)COC(=O)COc2ccc(Cl)c(C)c2)s1 | 38.6 (≈ 97.5 µM) |
| O=c1cc(CO)[nH]cc1OCc1ccccc1 | 34.4 (≈ 149 µM) |
| O=C(Oc1c(-c2ccccc2)c(=O)n2c3c(cccc13)CC2)c1ccco1 | 32.6 (≈ 91.2 µM) |
| O=CNCCCc1nc2ccccc2n1CCc1ccccc1 | > 46.1 |

| Compound | solubility kinetic [µg/mL] |
| --- | --- |
| CC1(C)C=C2C(=NN(c3ccccc3)C(N)=C2C#N)CO1 | > 42 |
| Cc1cccc(-n2c(=S)[nH]c3nc4c(cc3c2=O)COC(C)(C)C4)c1 | 1.7 (≈ 4.81 µM) |
| Oc1ccc(CNc2ccccc2)c2cccnc12 | 3.5 (≈ 14 µM) |
| Cc1ccnc(NC(=O)CNC(=O)c2ccc(C)s2)c1 | > 43.4 |
| COc1ccccc1NC(=O)CSc1nnc(-c2ccccn2)o1 | > 51.4 |
| Cc1oc(-c2ccccc2)cc1C(=O)NCc1ccncc1 | 36.7 (≈ 126 µM) |
| C=CCNc1nc(Cl)nc(Nc2ccccc2)n1 | 2.2 (≈ 8.41 µM) |
| NC(=O)c1sc2nc3c(cc2c1N)CCC3 | 31.3 (≈ 134 µM) |
| O=c1[nH]c(O)c(C=Nc2ccccc2Sc2ccccc2)c(=O)[nH]1 | 1.3 (≈ 3.83 µM) |
| CCNC(=O)CC1C(=O)N(c2ccc(OC)cc2)C(=O)N1CCOC (centres undefined) | > 52.4 |
| Cc1cc(C(=O)N2CCN(c3ccc([N+](=O)[O-])cc3)CC2)c(C)o1 | 20.3 (≈ 61.6 µM) |
| CC1CN(CCC(=O)Nc2ccccc2F)CC(C)O1 (centres undefined) | > 42.1 |
| O=C(NCc1ccccn1)C(=O)NCC(c1ccco1)N1CCOCC1 (centres undefined) | > 53.8 |
| O=S(=O)(NC1CC1)c1ccc(F)c(F)c1 | > 35 |
| CCc1cc(C(=O)c2ccccc2)c(N)s1 | 16.6 (≈ 71.8 µM) |
| O=C(O)c1cccnc1SCC(=O)C12CC3CC(CC(C3)C1)C2 | > 49.7 |
| CC(=O)N1CCC(C(=O)Nc2ccc3c(c2)CCC3)CC1 | > 43 |
| COc1ccc(N2CCN(c3cc(C)c4ccccc4n3)CC2)cc1 | < 0.2 |
| Cc1ccc(-c2nc(Nc3ccc(O)cc3)c3ccccc3n2)cc1 | 0.9 (≈ 2.75 µM) |
| NS(=O)(=O)c1ccc(CCNC(=O)c2ccc(Cl)c(S(=O)(=O)NCc3ccco3)c2)cc1 | > 74.7 |
| O=C(O)c1ccc(S(=O)(=O)N2CCSCC2)cc1 | 42.9 (≈ 149 µM) |
| OCCCNCc1ccc(N(c2ccccc2)c2ccccc2)cc1 | 39 (≈ 117 µM) |
| Cc1ccc2c(c1)/C(=C/c1ccccc1C)C(=O)N2 | 2.8 (≈ 11.2 µM) |
| O=[N+]([O-])c1ccc(Cc2ccccn2)c([N+](=O)[O-])c1 | 33.6 (≈ 130 µM) |

| Compound | solubility kinetic [µg/mL] |
| --- | --- |
| Cc1ccc(C)c(NC(=O)C2CC(=O)N(C3CCCCC3)C2)c1 (centres undefined) | 41.5 (≈ 132 µM) |
| CCNC(=O)CC1SC(=Nc2ccc(C)c([N+](=O)[O-])c2)N(C)C1=O (centres undefined) | > 52.6 |
| COCCCNC(=O)c1ccc(NC(C)=O)cc1 | > 37.5 |
| O=C(c1cc(-c2ccccc2)on1)N1CCCCCC1 | 39.1 (≈ 145 µM) |
| NC(=O)c1c(NC(=O)c2ccc(F)cc2Cl)sc2c1CCC2 | 1 (≈ 2.95 µM) |
| Cc1ccc(Cl)cc1N1CCN(CC(O)COC(C)C)CC1.Cl (centres undefined) | > 54.5 |
| NC(=O)c1ccsc1NC(=O)CN1C(=O)NC2(CCCC2)C1=O | > 50.5 |
| Cc1ccccc1CNCc1ccc2c(c1)OCO2.O=C(O)C(=O)O | > 51.8 |
| O=C(Nc1cc2c3c(c1)CC(=O)N3CCC2)C1CCCCC1 | > 44.8 |
| COC(=O)c1cccc(NC(=O)CN2CCc3ccccc3C2)c1 | 39.6 (≈ 122 µM) |
| COc1ccc(-n2c(O)c(C=NCCN(C)C)c(=O)[nH]c2=O)cc1 | > 49.9 |
| CCOc1ccc(NC(=O)C2CC(=O)N(Cc3ccco3)C2)cc1 (centres undefined) | > 49.3 |
| C1N2CN3CN1CN(C2)C3 | > 21 |
| O=C(COc1ccccc1[N+](=O)[O-])NCC1COc2ccccc2O1 (centres undefined) | 24.2 (≈ 70.3 µM) |
| CCCc1cc(=O)[nH]c(SCC(=O)Nc2ccc(Br)cc2)n1 | 1.1 (≈ 2.88 µM) |
| O=C(Nc1ccccc1)Nc1scc2c1c(=O)oc1ccccc12 | < 0.4 |
| CCn1ccnc1C(O)(c1ccccc1)c1ccccc1 | > 41.8 |
| Cc1ccc(C(=O)NCc2ccc3c(c2)OCO3)c(C)c1 | 11.1 (≈ 39.2 µM) |
| Cc1ccc(C)c(Nc2cc(C)nc3ccccc23)c1 | > 39.4 |
| COc1ccc(N2CCN(CC(=O)NCc3ccccc3)CC2)cc1 | > 50.9 |
| COc1ccc2oc(C(=O)N3CCN(S(=O)(=O)c4ccc(F)cc4)CC3)c(C)c2c1 | 7.5 (≈ 17.3 µM) |
| O=c1[nH]c(/C=C\c2cccc(F)c2)nc(O)c1[N+](=O)[O-] | > 41.6 |
| CSCC[C@H](NC(=O)c1cccc(S(=O)(=O)N2CCN(C)CC2)c1)c1nc2ccccc2[nH]1 | > 73.1 |
